Measured values as given in US20260015356A1, “ADENOSINE RECEPTOR ANTAGONISTS AND USES THEREOF” (Teon Therapeutics, Inc., priority 2022, published 2026).

Tested on: MC38 tumor model
Test: MC38 tumor model (fibrosis)
Type: in vivo
Conditions: no dose or method printed

SMILES: CCCn1c(=O)c2c(nc(-c3cnn(Cc4cccc(C(F)(F)F)c4)c3)n2C(C)=O)n(CC)c1=O [Compound 1, 7-acetyl-3-ethyl-1-propyl-8-(1-(3-(trifluoromethyl)benzyl)-1H-pyrazol-4-yl)-3,7-dihydro-1H-purine-2,6-dione]
- fibrosis in a MC38 tumor model: reduces fibrosis
